In patent publication US20170340698A1, “CYCLIC PEPTIDE SPECIFICALLY BINDING TO APOPTOTIC CELLS AND USE THEREOF” (KYUNGPOOK NATIONAL UNIVERSITY INDUSTRY-ACADEMIC COOPERATION …, priority 2014, published 2017):
Residues, ends and D or L forms follow the SMILES beside them.

Legend:
[1] = test system: SNU-16 stomach tumor xenografts; assay: Anti-tumor treatment of mice: tumor volume, tumor weight, TUNEL staining; type: in vivo; conditions: cisplatin 5 mg/kg i.p. once per week, cetuximab 1.5 mg/kg i.p. twice per week, two weeks; measured over three weeks
Experimental: Eight-week old female athymic (nu/nu) Balb/c mice were purchased from Orient laboratories (Seongnam, Korea) and were housed under specific-pathogen-free (SPF) conditions with laboratory chow and water ad libitum. Stomach tumor xenografts were established by subcutaneously injecting 1×10^7 SNU-16 cells in 100 ml saline into the right flank. Tumors were allowed to reach 50-60 mm^3 of volume before randomization and initiation of treatment. […] In the present experiment, a total of two rounds of anticancer drug treatment were conducted for two weeks. Changes in tumor size were measured using an automatic caliper over three weeks. Tumor volumes were calculated using the formula: volume=(length×width×height)/2. Tumor weights were measured after isolation of tumor mass.
To examine anti-tumor growth effect by cisplatin or cetuximab alone and in combination, tumor volumes and weights after the drug treatment were measured.

[2] = Stability of peptides in the serum (C18 reverse phase FPLC, MS); type: in vitro ADME, mice; conditions: mouse serum
Excerpt: Peptide stability in the serum was examined by the same method referring to the following documents Yoo S A, Bae D G, Ryoo J W, Kim H R, Park G S, et al. (2005) Arginine-rich antivascular endothelial growth factor (anti-VEGF) hexapeptide inhibits collageninduced arthritis and VEGF-stimulated productions of TNF-alpha and IL-6 by human monocytes. J Immunol 174: 5846-5855. Blood from mice was collected, and then serum was collected by centrifugation at 4[…], followed by filtration through 0.22 um-pore filter. […] The flow rate was 0.3 ml/min, and analyzed by C18 reverse phase FPLC using a linear gradient of 20% from 0 to 100% using acetonitrile through a linear graduation of 20% (Vydac protein and peptide C18, 0.1% trifluoroacetate in water for equilibration, and 0.1% trifluoroacetate in acetonitrile for elution) (Life Technologies, Carlsbad, Calif.). […]
It was examined whether higher levels of imaging signals by the cyclic form of ApoPep-1 compared with those of the linear form of ApoPep-1 was due to the difference in serum stability of peptides. After incubation of the linear or cyclic form of ApoPep-1 with mouse serum up to 24 hours, the amount of the peptide remaining in the serum was analyzed. […]

amount of peptide remaining in the serum (peak area) ([2]; 37 degrees, up to 24 hours)	presence of peptide in serum by MS after incubation ([2]; incubation for 24 hours, MS of FPLC peak)	Compound	tumor volume compared with control group treated without drug [1]
		N.N.[Cl][Pt][Cl] [cisplatin]	reduced tumor volumes
not significantly changed	stably present	N=C(N)NCCC[C@H](NC(=O)[C@@H]1CCCN1C(=O)[C@@H]1CCCN1C(=O)[C@H](CCCNC(=N)N)NC(=O)[C@H](CCC(N)=O)NC(=O)[C@@H](N)CS)C(=O)O [linear form of ApoPep-1, CQRPPR, reference compound] (H-CQRPPR-OH; N-terminus and C-terminus assumed)	
